Patent US11406699B2 (priority 2019, dated 2022)
Where “and” joins values, the source holds several entries; their conditions need not be identical. Equal values may be shown once.

Tests used:
CHIKV = assay type: cell-based, chikungunya virus
in vitro = details: African green monkey
VEEV ZPC738 TaV-nLuc = test: microbe, parasite or virus in culture; assay type: cell-based; details: Venezuelan equine encephalitis virus, Vero, 24 h
EEEV FL93-939 TaV-nLuc = test: microbe, parasite or virus in culture; assay type: cell-based; details: Eastern equine encephalitis virus, Vero, 24 h
VEEV TC-83 [1] = test: microbe, parasite or virus in culture; assay type: cell-based; details: Venezuelan equine encephalitis virus, Vero, read-out: effective concentration 50% (EC50)
SINV = assay type: cell-based, Sindbis virus
VEEV TC-83 [2] = assay type: cell-based, Venezuelan equine encephalitis virus

CC(=O)c1c(O)c(C)c(O)c(Cc2c(O)c3c(c(C(=O)/C=C/c4ccccc4)c2O)OC(C)(C)C=C3)c1O [Rottlerin]
decrease in CHIKV replication (CHIKV): 3 log
CC50 (in vitro): 63 µM
EC50 (VEEV ZPC738 TaV-nLuc): 1100 nM
EC50 (EEEV FL93-939 TaV-nLuc): 1700 nM
EC50 (VEEV TC-83 [1]): < 1000 nM
decrease in SINV replication (SINV): 5 log
decrease in VEEV TC-83 replication (VEEV TC-83 [2]): 2 log and 3 log
